ChEMBL document CHEMBL1201862, “PubChem BioAssay data set” (2004)
Active and inactive are the calls of the source.

How the values were obtained:
[1] = HEp-2 cell cytotoxicity, dose response, cytotoxicity control for RSV inhibitor project, HTS (AID 2410); type: functional; details: human respiratory syncytial virus
Caspase-6 = molecular target: T1, Caspase-6 (Homo sapiens, UniProt P55212); experiment: human caspase-6 inhibitors, dose response, biochemical, VEID-R110 fluorescence, cherry-pick (AID 720632)
T1 sequence (P55212 whole entry): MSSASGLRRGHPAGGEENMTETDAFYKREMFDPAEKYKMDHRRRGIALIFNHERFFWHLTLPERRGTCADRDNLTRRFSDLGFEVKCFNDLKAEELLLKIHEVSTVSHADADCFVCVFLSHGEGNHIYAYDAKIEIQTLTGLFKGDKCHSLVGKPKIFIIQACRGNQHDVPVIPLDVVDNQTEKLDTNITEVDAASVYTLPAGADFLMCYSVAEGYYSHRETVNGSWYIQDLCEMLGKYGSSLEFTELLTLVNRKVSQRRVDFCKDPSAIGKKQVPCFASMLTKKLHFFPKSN

Protein RecA = molecular target: T2, Protein RecA (Mycobacterium tuberculosis, UniProt P9WHJ3); experiment: Fluorescence Cell-Free Homogeneous Dose Retest to Identify Inhibitors of RecA-Intein Splicing Activity. [Related pubchem assays (depositor defined):AID2097, AID2223, AID489010, AID492950]; type: functional
T2 sequence (P9WHJ3 whole entry): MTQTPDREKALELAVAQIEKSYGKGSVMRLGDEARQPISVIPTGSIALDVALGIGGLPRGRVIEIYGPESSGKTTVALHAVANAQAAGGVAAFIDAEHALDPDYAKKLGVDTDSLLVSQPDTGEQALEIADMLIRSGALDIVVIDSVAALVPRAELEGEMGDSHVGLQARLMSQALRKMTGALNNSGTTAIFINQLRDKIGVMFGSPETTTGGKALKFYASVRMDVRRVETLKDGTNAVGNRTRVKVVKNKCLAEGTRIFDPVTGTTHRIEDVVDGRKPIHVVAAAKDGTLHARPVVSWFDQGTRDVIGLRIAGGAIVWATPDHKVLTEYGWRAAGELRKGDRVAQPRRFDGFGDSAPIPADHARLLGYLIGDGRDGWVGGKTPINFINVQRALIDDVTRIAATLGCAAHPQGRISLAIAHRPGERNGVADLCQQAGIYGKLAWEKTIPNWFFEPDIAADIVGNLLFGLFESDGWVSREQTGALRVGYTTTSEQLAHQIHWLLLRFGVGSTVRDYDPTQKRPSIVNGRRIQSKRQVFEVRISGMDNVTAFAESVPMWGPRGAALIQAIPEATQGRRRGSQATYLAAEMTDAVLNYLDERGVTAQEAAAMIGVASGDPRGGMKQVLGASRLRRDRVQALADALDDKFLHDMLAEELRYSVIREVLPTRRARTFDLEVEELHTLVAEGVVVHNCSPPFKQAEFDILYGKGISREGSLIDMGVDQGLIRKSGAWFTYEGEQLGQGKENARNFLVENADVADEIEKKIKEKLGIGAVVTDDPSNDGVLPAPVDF

Genome polyprotein = Genome polyprotein (dengue virus type 2, UniProt P29990); experiment: Dengue-2 NS5 methyltransferase inhibitors, primary screen, biochemical, confirmation dose response (AID 588689); type: functional
[2] = molecular target: T3, Replicative DNA helicase DnaB (Mycobacterium tuberculosis, UniProt P9WMR3); experiment: DnaB intein splicing inhibitors, dose response, biochemical, cell-free fluorescence (AID 449749); type: functional
T3 sequence (P9WMR3 whole entry): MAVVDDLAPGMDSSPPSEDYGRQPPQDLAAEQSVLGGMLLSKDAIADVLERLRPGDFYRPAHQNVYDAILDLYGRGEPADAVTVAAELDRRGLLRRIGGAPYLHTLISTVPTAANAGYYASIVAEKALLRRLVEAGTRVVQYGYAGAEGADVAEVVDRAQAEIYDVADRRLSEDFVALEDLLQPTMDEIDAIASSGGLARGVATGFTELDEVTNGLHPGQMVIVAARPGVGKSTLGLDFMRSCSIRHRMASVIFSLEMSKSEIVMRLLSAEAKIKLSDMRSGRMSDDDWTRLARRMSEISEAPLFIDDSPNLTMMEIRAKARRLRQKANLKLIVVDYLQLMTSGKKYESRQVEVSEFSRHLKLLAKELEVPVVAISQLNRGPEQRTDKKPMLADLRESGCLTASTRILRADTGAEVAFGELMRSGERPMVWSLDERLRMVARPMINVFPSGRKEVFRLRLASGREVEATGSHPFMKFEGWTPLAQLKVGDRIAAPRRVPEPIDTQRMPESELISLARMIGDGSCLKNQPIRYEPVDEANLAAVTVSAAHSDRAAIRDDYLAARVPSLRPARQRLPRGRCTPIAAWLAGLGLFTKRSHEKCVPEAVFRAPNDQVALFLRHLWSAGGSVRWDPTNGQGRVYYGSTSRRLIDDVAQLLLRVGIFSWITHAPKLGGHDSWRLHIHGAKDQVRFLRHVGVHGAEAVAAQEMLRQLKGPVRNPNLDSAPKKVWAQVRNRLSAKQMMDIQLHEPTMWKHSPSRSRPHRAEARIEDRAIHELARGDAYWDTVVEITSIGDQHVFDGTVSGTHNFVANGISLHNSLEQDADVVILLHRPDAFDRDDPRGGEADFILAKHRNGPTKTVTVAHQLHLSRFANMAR

[3] = molecular target: T4, Lysine-specific demethylase 4C (Homo sapiens, UniProt Q9H3R0); experiment: GASC-1 (JMJD2C) histone demethylase inhibitors, dose response, biochemical, DELFIA europium, cherry-picked samples (AID 488835); type: functional
T4 sequence (Q9H3R0 whole entry): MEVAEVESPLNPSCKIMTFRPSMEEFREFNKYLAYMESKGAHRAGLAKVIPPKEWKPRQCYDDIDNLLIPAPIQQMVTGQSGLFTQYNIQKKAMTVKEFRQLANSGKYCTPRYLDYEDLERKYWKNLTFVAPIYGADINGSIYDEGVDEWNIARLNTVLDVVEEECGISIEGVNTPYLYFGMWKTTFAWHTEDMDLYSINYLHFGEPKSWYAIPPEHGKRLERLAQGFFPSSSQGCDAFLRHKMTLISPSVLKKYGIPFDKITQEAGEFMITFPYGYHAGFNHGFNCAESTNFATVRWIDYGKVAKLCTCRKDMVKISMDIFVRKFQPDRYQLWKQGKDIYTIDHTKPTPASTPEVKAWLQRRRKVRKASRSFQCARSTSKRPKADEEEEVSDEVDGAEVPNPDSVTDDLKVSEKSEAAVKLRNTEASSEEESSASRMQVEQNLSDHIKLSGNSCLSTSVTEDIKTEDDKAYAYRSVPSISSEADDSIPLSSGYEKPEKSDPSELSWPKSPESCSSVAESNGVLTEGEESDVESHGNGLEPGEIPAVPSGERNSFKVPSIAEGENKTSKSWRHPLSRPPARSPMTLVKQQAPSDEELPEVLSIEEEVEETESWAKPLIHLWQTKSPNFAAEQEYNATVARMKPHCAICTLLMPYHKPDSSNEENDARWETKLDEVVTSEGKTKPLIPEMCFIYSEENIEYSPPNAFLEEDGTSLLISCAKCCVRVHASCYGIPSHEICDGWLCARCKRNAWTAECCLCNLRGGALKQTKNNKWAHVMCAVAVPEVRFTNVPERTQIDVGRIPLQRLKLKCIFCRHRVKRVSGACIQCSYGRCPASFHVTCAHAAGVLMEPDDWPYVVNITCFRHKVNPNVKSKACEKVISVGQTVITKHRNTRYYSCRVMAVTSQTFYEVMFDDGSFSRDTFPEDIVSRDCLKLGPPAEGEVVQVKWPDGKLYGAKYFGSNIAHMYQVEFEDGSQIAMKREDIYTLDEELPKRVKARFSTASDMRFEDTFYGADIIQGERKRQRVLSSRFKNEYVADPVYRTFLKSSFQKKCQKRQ

INS1 = experiment: beta cell apoptosis inhibitors, cytokine rescue, dose response, luminescence, retest (AID 449756); type: functional, cell-based; details: Rattus norvegicus;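 further: cell death triggered by IL-1 beta plus TNF-alpha plus IFN-gamma mixture; protective hits raise ATP signal compared with cytokine alone wells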
Large T antigen = Large T antigen (Simian virus 40, UniProt P03070); type: functional, Betapolyomavirus macacae;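 further: Confirmatory-stage PubChem screen for compounds that inhibit SV40 T antigen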
Trypsin = Trypsin (Sus scrofa, UniProt P00761); experiment: porcine trypsin inhibitors, dose response, selectivity assay for Rce1 protease inhibitor project, biochemical, quenched peptide fluorescence, cherry-pick (AID 488789)
Phospholipase A2 = Phospholipase A2 (Homo sapiens, UniProt P04054); type: functional;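 further: confirmatory dose-response counterscreen on phospholipase A2, testing hits that came from an ultra-high-throughput screen for ATG4B inhibitors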
[4] = molecular target: T5, Calpain-2 catalytic subunit (Sus scrofa, UniProt P43367); experiment: pig calpain II inhibitor potency, dose response, biochemical, fluorogenic peptide substrate (AID 1420); type: functional
T5 sequence (P43367 whole entry): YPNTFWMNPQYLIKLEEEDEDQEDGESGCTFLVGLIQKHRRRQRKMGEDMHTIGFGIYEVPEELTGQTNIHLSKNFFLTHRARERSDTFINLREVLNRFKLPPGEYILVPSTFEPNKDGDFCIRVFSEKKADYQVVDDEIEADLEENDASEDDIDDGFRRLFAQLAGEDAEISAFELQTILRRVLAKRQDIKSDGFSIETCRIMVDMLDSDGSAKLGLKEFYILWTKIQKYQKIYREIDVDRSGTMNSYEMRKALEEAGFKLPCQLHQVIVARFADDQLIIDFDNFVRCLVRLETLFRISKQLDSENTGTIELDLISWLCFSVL

Cysteine protease ATG4B = molecular target: T6, Cysteine protease ATG4B (Homo sapiens, UniProt Q9Y4P1); type: functional;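 further: Fluorescence-based dose-response confirmation assay measuring inhibition of ATG4B activity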
T6 sequence (Q9Y4P1 whole entry): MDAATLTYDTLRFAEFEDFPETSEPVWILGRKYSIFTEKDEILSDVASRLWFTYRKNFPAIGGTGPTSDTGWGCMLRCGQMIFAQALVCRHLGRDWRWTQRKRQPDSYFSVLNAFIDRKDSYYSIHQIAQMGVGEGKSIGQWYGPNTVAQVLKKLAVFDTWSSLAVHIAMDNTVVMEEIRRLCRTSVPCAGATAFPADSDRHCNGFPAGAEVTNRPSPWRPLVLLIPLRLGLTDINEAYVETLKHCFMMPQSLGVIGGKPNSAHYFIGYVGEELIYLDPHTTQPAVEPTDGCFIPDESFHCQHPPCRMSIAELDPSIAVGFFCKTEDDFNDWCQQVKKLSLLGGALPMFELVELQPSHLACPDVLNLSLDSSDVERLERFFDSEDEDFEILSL

[5] = StAR promoter reporter inhibition counter-screen, dose response, counter-screen for LRH-1 inverse agonist project, cell-based, luminescence, luciferase reporter (AID 651969); type: functional
[6] = molecular target: Heat shock protein HSP 90-alpha (Homo sapiens, UniProt P07900); type: functional, organism-based
[7] = molecular target: T7, E3 ubiquitin-protein ligase XIAP (Homo sapiens, UniProt P98170); experiment: Counter Screen using XIAP-Bir3 for Chemical Antagonists of Bir1/2 domains of IAP-family anti-apoptotic proteins. [Related pubchem assays (depositor defined):AID1018, AID1449, AID1514, AID1638, AID1749, AID1750, AID488957, AID488963]
[8] = molecular target: T7, E3 ubiquitin-protein ligase XIAP; experiment: XIAP antagonists, biochemical, IAP family, fluorescence polarization (AID 1018); type: functional

T7 sequence (P98170 whole entry): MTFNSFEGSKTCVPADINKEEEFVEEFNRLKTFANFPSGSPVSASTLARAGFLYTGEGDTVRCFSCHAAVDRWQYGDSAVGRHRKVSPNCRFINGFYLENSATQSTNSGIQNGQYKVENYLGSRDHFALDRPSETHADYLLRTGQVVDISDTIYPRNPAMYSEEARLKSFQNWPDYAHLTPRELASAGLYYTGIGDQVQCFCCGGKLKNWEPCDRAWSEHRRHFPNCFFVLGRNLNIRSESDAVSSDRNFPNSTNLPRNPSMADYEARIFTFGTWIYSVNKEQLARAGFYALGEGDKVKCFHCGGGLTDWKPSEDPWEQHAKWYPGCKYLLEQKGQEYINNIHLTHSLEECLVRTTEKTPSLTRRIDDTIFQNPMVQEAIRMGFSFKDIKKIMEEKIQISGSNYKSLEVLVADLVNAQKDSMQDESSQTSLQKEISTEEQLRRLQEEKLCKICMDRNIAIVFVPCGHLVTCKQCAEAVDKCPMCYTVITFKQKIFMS
Chain of Genome polyprotein (P29990 2492-3391 limits assumed): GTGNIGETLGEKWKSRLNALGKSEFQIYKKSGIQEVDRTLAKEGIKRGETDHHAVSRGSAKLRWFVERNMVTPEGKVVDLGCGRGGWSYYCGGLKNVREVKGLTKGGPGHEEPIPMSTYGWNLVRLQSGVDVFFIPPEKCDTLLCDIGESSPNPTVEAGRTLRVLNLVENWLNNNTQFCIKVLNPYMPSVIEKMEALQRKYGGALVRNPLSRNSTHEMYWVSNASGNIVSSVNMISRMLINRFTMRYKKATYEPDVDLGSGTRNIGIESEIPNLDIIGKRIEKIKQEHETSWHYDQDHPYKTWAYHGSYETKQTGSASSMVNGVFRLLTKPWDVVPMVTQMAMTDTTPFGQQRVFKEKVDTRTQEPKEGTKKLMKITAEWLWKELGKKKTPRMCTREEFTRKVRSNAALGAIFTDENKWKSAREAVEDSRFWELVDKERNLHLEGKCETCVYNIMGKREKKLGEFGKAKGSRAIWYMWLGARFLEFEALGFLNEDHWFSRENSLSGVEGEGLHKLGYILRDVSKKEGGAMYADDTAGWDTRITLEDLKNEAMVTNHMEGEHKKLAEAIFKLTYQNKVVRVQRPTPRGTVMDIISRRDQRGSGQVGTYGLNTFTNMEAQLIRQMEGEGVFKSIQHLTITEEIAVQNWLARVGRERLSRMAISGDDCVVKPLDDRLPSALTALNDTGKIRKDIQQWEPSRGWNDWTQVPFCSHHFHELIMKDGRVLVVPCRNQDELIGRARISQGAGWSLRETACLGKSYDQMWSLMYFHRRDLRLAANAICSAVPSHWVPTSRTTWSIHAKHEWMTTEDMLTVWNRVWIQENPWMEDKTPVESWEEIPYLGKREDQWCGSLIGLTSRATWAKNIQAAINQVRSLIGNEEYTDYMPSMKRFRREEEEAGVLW
Chain of Large T antigen (P03070 whole entry): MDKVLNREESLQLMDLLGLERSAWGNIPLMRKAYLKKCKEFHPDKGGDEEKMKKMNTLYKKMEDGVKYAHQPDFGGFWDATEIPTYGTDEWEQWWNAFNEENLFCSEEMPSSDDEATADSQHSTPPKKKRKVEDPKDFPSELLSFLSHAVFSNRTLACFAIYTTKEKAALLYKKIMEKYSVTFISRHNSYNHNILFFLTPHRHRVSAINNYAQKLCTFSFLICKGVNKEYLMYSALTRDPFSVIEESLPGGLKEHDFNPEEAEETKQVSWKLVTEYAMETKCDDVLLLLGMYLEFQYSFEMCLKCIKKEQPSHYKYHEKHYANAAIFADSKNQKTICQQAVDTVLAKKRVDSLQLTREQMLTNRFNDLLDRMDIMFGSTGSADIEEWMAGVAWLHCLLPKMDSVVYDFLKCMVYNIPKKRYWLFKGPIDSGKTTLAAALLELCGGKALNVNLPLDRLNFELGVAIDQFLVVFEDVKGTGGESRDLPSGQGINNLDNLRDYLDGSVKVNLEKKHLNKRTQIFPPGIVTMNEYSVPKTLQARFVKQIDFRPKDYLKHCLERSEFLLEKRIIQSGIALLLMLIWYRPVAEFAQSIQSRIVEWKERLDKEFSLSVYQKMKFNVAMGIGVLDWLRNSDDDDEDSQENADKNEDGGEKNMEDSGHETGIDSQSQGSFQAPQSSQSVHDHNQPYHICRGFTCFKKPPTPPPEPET
Chain of Phospholipase A2 (P04054 whole entry): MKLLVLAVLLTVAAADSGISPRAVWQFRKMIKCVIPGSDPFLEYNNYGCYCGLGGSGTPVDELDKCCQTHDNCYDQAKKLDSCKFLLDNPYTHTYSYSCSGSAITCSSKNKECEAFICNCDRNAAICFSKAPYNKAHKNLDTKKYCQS
Chain of Trypsin (P00761 whole entry): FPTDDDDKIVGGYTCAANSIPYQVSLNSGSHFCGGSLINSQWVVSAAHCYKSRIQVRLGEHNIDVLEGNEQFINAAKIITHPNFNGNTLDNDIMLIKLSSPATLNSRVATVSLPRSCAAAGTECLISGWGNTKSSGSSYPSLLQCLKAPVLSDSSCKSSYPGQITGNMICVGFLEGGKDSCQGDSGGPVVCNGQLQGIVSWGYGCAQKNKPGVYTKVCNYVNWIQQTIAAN

For CCOc1ccc(NC(=NCc2ccc3c(c2)OCO3)SC2CC(=O)N(c3ccc(C(=O)O)cc3)C2=O)cc1 (centres undefined), the CC50 [1] was 22.8 µM (active) and the IC50 (cells) was 15.6 µM (active).

For COc1ccc2nc3cccc(OC)c3nc2c1, the AC50 (Caspase-6) was 23.1 µM (active), the EC50 (Protein RecA) was 20.8 µM (active) and the IC50 (Genome polyprotein) was > 100 µM (active). The AC50 [2] was > 380 µM (inactive).

With O=S(=O)(c1ccc2nc(Nc3ccccc3)ccc2c1)N1CCCCC1 the AC50 [3] was 6.53 µM (active) and the AC50 (INS1) was 12.2 µM (active).

With O=S(=O)(Nc1ccc(O)cc1)c1cccc2cccnc12 the IC50 (Large T antigen) was 7.36 µM (active).

For O=C(Nc1ccccc1)n1ccc(-c2ccc(-n3ccnc3)cc2)n1, the AC50 (Trypsin) was 17.9 µM (active).

In the case of CCn1c(=O)c2cc(C(=O)N(C)c3cc(C)ccc3OC)sc2c2ccccc21, the CC50 [1] is reported as 21.2 µM (active) and the IC50 (cells) is reported as 21.5 µM (active).

For CC(=N)/C(C#N)=C(/O)COC(=O)c1ccncc1, the IC50 (cells) was 1.14 µM (active).

For CCC(C)N=C(S)N1CCN(C)CC1 (centres undefined), the AC50 [3] was 26.5 µM (active).

With CC(C)(C)c1nc(SCC(=O)c2ccccc2)c2ccccc2n1 the IC50 (Phospholipase A2) was 10.1 µM (active), the IC50 [4] was > 50 µM (not active) and the CC50 [1] was 39.5 µM (active). The IC50 (Cysteine protease ATG4B) was 15.8 µM (active).

In the case of CCOC(=O)c1c(C)n(C)c2ccc(O)c(S(=O)(=O)c3ccccc3)c12, the AC50 [3] is reported as 9.92 µM (active).

For CCc1c(C)nc(SCC(=O)Nc2ccc3c(c2)OCCO3)nc1O, the IC50 [5] was 35.9 µM (inactive).

For CCOc1ccccc1N1CCN(C(=O)c2cccc(-c3ccc(O)cc3)c2)CC1, the AC50 [6] was 3.3 µM (active), the IC50 [7] was > 100 µM (inactive) and the IC50 [8] was > 100 µM (not active).

For COc1ccccc1-c1sc2cc3c(cc2c1-c1ccc(O)cc1)OCO3, the AC50 [6] was 8.22 µM (active).
